Type in all cases: cell-based
In one test the test system is CD8 T cells. Briefly: CD69 expression on aCD3/aCD28 stimulated isolated human CD8 T cells (flow cytometry). As to conditions: T-cell, 24 h after TCR stimulation, read-out: Activity Class CD69 (CD8). As for the experimental part:
(§1) Isolated T cells were plated in Xvivo medium at 1.5*10 ^5 cells per in 96 well culture plates and TCR-stimulated with anti-CD3/28 mAbs in the presence of compound as indicated. Cytokine production was determined at 24 h or 48 h following TCR stimulation in cell culture supernatants using commercially available ELISA kits (BD and eBioscience) as recommended by the manufacturer. T cell proliferation and CD25 expression (CD25-PC5 reagent purchased from Beckman Coulter) was determined by flow cytometry (Beckman-Coulter FC500) and analysed with Kaluza Software. For measurement of CD69 expression, isolated CD4 and CD8 T cells were plated in Xvivo medium at […] per in 96 well culture plates and TCR-stimulated with anti-CD3/28 mAbs in the presence of compound. CD69 expression was determined at 24 h following TCR stimulation by flow cytometry (CD4eF450, CD8APCeF780 and CD69-PC7 reagent purchased from eBioscience) and analysed with Kaluza Software.
(§2) For measurement of CD69 expression, isolated CD4 and CD8 T cells were plated in Xvivo medium at 80000 cells per in 96 well culture plates and TCR-stimulated with anti-CD3/28 mAbs in the presence of compound. CD69 expression was determined at 24 h following TCR stimulation by flow cytometry (CD4eF450, CD8APCeF780 and CD69-PC7 reagent purchased from eBioscience) and analysed with Kaluza Software.
A general note: A flow cytometer gives signals particle by particle.

The next test deals with CD4 T cells. Put plainly: CD69 expression on aCD3/aCD28 stimulated isolated human CD4 T cells (flow cytometry). Particulars: 24 h after TCR stimulation, read-out: Activity Class CD69 (CD4). The procedure: as §1, §2
Test [1] deals with aCD3/aCD28-stimulated human PBMCs. Briefly: Cytokine production in aCD3/aCD28 stimulated human PBMCs. Particulars: PBMC, 18 h. The gist of the method:
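Ficoll-isolated human PBMCs at 1e6 cells/mL in X-Vivo15, stimulated with soluble anti-CD3/CD28 (OKT3 and 28.2, 1 μg/mL each) plus compound for 18 h at 37° C. Supernatant cytokines quantified by MSD or HTRF.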

Setting [2] is: enhancement of IFN-γ production, read-out: Activity Class IFN-γ.
Setting [3] is: enhancement of IL-2 production, read-out: Activity Class IL-2.

Like-named read-outs stand apart in the source and are kept apart here.

Turning to `N[C@H]1CS(=O)(=O)c2cc(F)c(C(=O)N[C@H]3CCC(F)(F)C3)cc2N(Cc2ccc(Cl)cc2)C1=O` [Example 146, (3R)-3-amino-5-[(4-chlorophenyl)methyl]-N-[(1S)-3,3-difluorocyclopentyl]-8-fluoro-1,1,4-trioxo-2,3,4,5-tetrahydro-1λ^6,5-benzothiazepine-7-carboxamide], the EC50 with CD8 T cells was 1580 to 5010 nM; in the test on CD4 T cells it was 1580 to 5010 nM; in test [1] (setting [2]), below 1580 nM; in test [1] (setting [3]), below 1580 nM.

Take `COc1ccc(CN2C(=O)[C@@H](N)CS(=O)(=O)c3ccc(C(=O)NCCCC(F)(F)F)cc32)cc1` [Example 150, (3R)-3-amino-5-[(4-methoxyphenyl)methyl]-1,1,4-trioxo-N-(4,4,4-trifluorobutyl)-2,3,4,5-tetrahydro-1λ^6,5-benzothiazepine-7-carboxamide]: the EC50 in the test on CD8 T cells is above 5010 nM; with CD4 T cells it was above 5010 nM; in test [1] (setting [2]), 1580 to 5010 nM; in test [1] (setting [3]), 1580 to 5010 nM.

On to `COc1ccc(CNC(=O)c2ccc3c(c2)N(Cc2ccc(OC)cc2)C(=O)[C@@H](N)CS3(=O)=O)cc1` [Example 151, (3R)-3-amino-N,5-bis[(4-methoxyphenyl)methyl]-1,1,4-trioxo-2,3,4,5-tetrahydro-1λ^6,5-benzothiazepine-7-carboxamide], for which the EC50 is below 1580 nM in the test with CD8 T cells, 1580 to 5010 nM in the test on CD4 T cells, 1580 to 5010 nM in test [1] (setting [2]) and 1580 to 5010 nM in test [1] (setting [3]).

With `COc1ccc(CNC(=O)c2ccc3c(c2)N(Cc2ccccc2)C(=O)[C@@H](N)CS3(=O)=O)cc1` [Example 152, (3R)-3-amino-5-benzyl-N-[(4-methoxyphenyl)methyl]-1,1,4-trioxo-2,3,4,5-tetrahydro-1λ^6,5-benzothiazepine-7-carboxamide], the EC50 in the test on CD8 T cells is 1580 to 5010 nM; with CD4 T cells it was 1580 to 5010 nM; in test [1] (setting [2]), 1580 to 5010 nM; in test [1] (setting [3]) it was above 5010 nM.

As for `COc1ccc(CNC(=O)c2ccc3c(c2)N(Cc2ccc(Cl)cc2)C(=O)[C@@H](N)CS3(=O)=O)cc1` [Example 153, (3R)-3-amino-5-[(4-chlorophenyl)methyl]-N-[(4-methoxyphenyl)methyl]-1,1,4-trioxo-2,3,4,5-tetrahydro-1λ^6,5-benzothiazepine-7-carboxamide], the EC50 (with CD8 T cells; in the test on CD4 T cells; in test [1] (setting [2]); in test [1] (setting [3])) was below 1580 nM each time.

On to `COc1ccc(CN2C(=O)[C@@H](N)CS(=O)(=O)c3ccc(C(=O)NC4CCC(F)(F)CC4)cc32)cc1` [Example 154, (3R)-3-amino-N-(4,4-difluorocyclohexyl)-5-[(4-methoxyphenyl)methyl]-1,1,4-trioxo-2,3,4,5-tetrahydro-1λ^6,5-benzothiazepine-7-carboxamide], for which the EC50 is below 1580 nM in the test with CD8 T cells, 1580 to 5010 nM in the test on CD4 T cells, 1580 to 5010 nM in test [1] (setting [2]) and above 5010 nM in test [1] (setting [3]).

On to `N[C@H]1CS(=O)(=O)c2ccc(C(=O)NCCC(F)(F)F)cc2N(Cc2ccc(Cl)cc2)C1=O` [Example 155, (3R)-3-amino-5-[(4-chlorophenyl)methyl]-1,1,4-trioxo-N-(3,3,3-trifluoropropyl)-2,3,4,5-tetrahydro-1λ^6,5-benzothiazepine-7-carboxamide], for which the EC50 with CD8 T cells is below 1580 nM; in the test with CD4 T cells it was below 1580 nM; in test [1] (setting [2]) it was 1580 to 5010 nM; in test [1] (setting [3]), 1580 to 5010 nM.

Regarding `N[C@H]1CS(=O)(=O)c2ccc(C(=O)N[C@@H]3CC3(F)F)cc2N(Cc2ccc(Cl)cc2)C1=O` [Example 158, (3R)-3-amino-5-[(4-chlorophenyl)methyl]-N-[(1R)-2,2-difluorocyclopropyl]-1,1,4-trioxo-2,3,4,5-tetrahydro-1λ^6,5-benzothiazepine-7-carboxamide], the EC50 in the test with CD8 T cells is 1580 to 5010 nM; in the test on CD4 T cells, 1580 to 5010 nM; in test [1] (setting [2]), below 1580 nM; in test [1] (setting [3]) it was 1580 to 5010 nM.

As for `N[C@H]1CS(=O)(=O)c2ccc(C(=O)N[C@@H]3CC3(F)F)cc2N(Cc2ccc(C3CC3)cc2)C1=O` [Example 159, (3R)-3-amino-5-[(4-cyclopropylphenyl)methyl]-N-[(1R)-2,2-difluorocyclopropyl]-1,1,4-trioxo-2,3,4,5-tetrahydro-1λ^6,5-benzothiazepine-7-carboxamide], the EC50 was below 1580 nM with CD8 T cells, below 1580 nM in the test with CD4 T cells, 1580 to 5010 nM in test [1] (setting [2]) and 1580 to 5010 nM in test [1] (setting [3]).

`N[C@H]1CS(=O)(=O)c2ccc(C(=O)N[C@@H]3CC3(F)F)cc2N(Cc2ccc(OC(F)F)cc2)C1=O` [Example 160, (3R)-3-amino-N-[(1R)-2,2-difluorocyclopropyl]-5-{[4-(difluoromethoxy)phenyl]methyl}-1,1,4-trioxo-2,3,4,5-tetrahydro-1λ^6,5-benzothiazepine-7-carboxamide]: the EC50 with CD8 T cells was 1580 to 5010 nM; in the test on CD4 T cells, below 1580 nM; in test [1] (setting [2]) it was above 5010 nM; in test [1] (setting [3]) it was above 5010 nM.

For `N[C@H]1CS(=O)(=O)c2cc(Cl)c(C(=O)NCCCC(F)(F)F)cc2N(Cc2ccc(Cl)cc2)C1=O` [Example 163, (3R)-3-amino-8-chloro-5-[(4-chlorophenyl)methyl]-1,1,4-trioxo-N-(4,4,4-trifluorobutyl)-2,3,4,5-tetrahydro-1λ^6,5-benzothiazepine-7-carboxamide], the EC50 in the test with CD8 T cells is below 1580 nM; with CD4 T cells, below 1580 nM; in test [1] (setting [2]), below 1580 nM; in test [1] (setting [3]), 1580 to 5010 nM.

With `N[C@H]1CS(=O)(=O)c2ccc(C(=O)NCC3(F)CCOCC3)cc2N(Cc2ccc(Cl)cc2)C1=O` [Example 165, (3R)-3-amino-5-[(4-chlorophenyl)methyl]-N-[(4-fluorooxan-4-yl)methyl]-1,1,4-trioxo-2,3,4,5-tetrahydro-1λ^6,5-benzothiazepine-7-carboxamide], the EC50 was below 1580 nM in the test with CD8 T cells, below 1580 nM with CD4 T cells, below 1580 nM in test [1] (setting [2]) and 1580 to 5010 nM in test [1] (setting [3]).

As for `N[C@H]1CS(=O)(=O)c2ccc(C(=O)N[C@@H]3CCC(F)(F)C3)cc2N(Cc2ccc(Cl)cc2)C1=O` [Example 169, (3R)-3-amino-5-[(4-chlorophenyl)methyl]-N-[(1R)-3,3-difluorocyclopentyl]-1,1,4-trioxo-2,3,4,5-tetrahydro-1λ^6,5-benzothiazepine-7-carboxamide], the EC50 (with CD8 T cells; in the test on CD4 T cells; in test [1] (setting [2]); in test [1] (setting [3])) was below 1580 nM each time.

For the compound `N[C@H]1CS(=O)(=O)c2ccc(C(=O)NCC3CC(F)(F)C3)cc2N(Cc2ccc(Cl)cc2)C1=O` [Example 171, (3R)-3-amino-5-[(4-chlorophenyl)methyl]-N-[(3,3-difluorocyclobutyl)methyl]-1,1,4-trioxo-2,3,4,5-tetrahydro-1λ^6,5-benzothiazepine-7-carboxamide], the EC50 is below 1580 nM in the test with CD8 T cells, below 1580 nM in the test with CD4 T cells, 1580 to 5010 nM in test [1] (setting [2]) and below 1580 nM in test [1] (setting [3]).

For `N[C@H]1CS(=O)(=O)c2cc(Cl)c(C(=O)N[C@@H]3CC3(F)F)cc2N(Cc2ccc(Cl)cc2)C1=O` [Example 175, (3R)-3-amino-8-chloro-5-[(4-chlorophenyl)methyl]-N-[(1R)-2,2-difluorocyclopropyl]-1,1,4-trioxo-2,3,4,5-tetrahydro-1λ^6,5-benzothiazepine-7-carboxamide], the EC50 in the test on CD8 T cells is 1580 to 5010 nM; in the test with CD4 T cells it was below 1580 nM; in test [1] (setting [2]), 1580 to 5010 nM; in test [1] (setting [3]), above 5010 nM.

The record behind these values is patent US10472341B2, “Bicyclic tetrahydrothiazepine derivatives useful for the treatment of neoplastic and/or infectious diseases” (APEIRON BIOLOGICS AG, priority 2015, dated 2019).
